Test results reported in PubChem BioAssay (NCI).
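Dose response: 5 concentrations. Exposure: 48 h. Format: 96-well plates. Endpoint: linear interpolation; highest concentration if not reached. The concentration for 50% growth inhibition is given as GI50. At the TGI there is no net growth.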

Experiments:
Test in all cases: inhibition of tumour cell growth, NCI panel, 48 h
NCI/ADR-RES ovarian = tested on: NCI/ADR-RES ovarian
SF-295 CNS = tested on: SF-295 CNS
EKVX NSCLC = tested on: EKVX NSCLC
KM12 colon = tested on: KM12 colon
MALME-3M melanoma = tested on: MALME-3M melanoma
COLO 205 colon = tested on: COLO 205 colon
IGROV1 ovarian = tested on: IGROV1 ovarian
K-562 leukemia = tested on: K-562 leukemia
HCT-116 colon = tested on: HCT-116 colon
PC-3 prostate = tested on: PC-3 prostate

Row | SMILES | GI50 (NCI/ADR-RES ovarian) [µM] | TGI (NCI/ADR-RES ovarian) [µM] | GI50 (SF-295 CNS) [µM] | TGI (SF-295 CNS) [µM] | GI50 (EKVX NSCLC) [µM] | TGI (EKVX NSCLC) [µM] | GI50 (KM12 colon) [µM] | TGI (KM12 colon) [µM] | GI50 (MALME-3M melanoma) [µM] | TGI (MALME-3M melanoma) [µM] | GI50 (COLO 205 colon) [µM] | TGI (COLO 205 colon) [µM] | GI50 (IGROV1 ovarian) [µM] | TGI (IGROV1 ovarian) [µM] | GI50 (K-562 leukemia) [µM] | TGI (K-562 leukemia) [µM] | GI50 (HCT-116 colon) [µM] | TGI (HCT-116 colon) [µM] | GI50 (PC-3 prostate) [µM] | TGI (PC-3 prostate) [µM]
1 | O=C1/C(=C/c2ccc(C(F)(F)F)cc2)COc2ccc(O)c(O)c21 | 1.8 | 6.59 | 3.15 | 8.52 | 1.61 | 2.99 | 1.7 | 3.84 | 1.55 | 3.3 | 1.58 | 3.06 | 0.476 | 1.84 | 0.289 | > 100 | 1.35 | 3.12 |  | 
2 | N#CC(/C(CCCC(=O)Nc1cccc([N+](=O)[O-])c1)=N\NC(=O)c1c(O)ccc2ccccc12)c1nc2ccccc2s1 (centres undefined) |  |  |  | > 100 |  | > 100 |  | > 100 |  | > 100 |  | > 100 |  | > 100 |  | > 100 |  | > 100 |  | 
3 | COc1ccc(C(=O)C(C(=O)C(=O)NCCCNC(=O)C(=O)C(C(=O)c2ccc(OC)cc2)c2ccc(OC)cc2)c2ccc(OC)cc2)cc1 (centres undefined) |  |  |  | > 100 |  | > 100 |  | > 100 |  | > 100 |  | > 100 |  | > 100 |  | > 100 |  | > 100 |  | 
4 | CCOCCOCCOCCOCCOCCOCCOCCOCCOCCO (tested in a mixture with another compound) | 3.96 | > 32.5 | 0.869 | 4.12 | 1.26 | 9.62 | 1.2 | 4.67 | 3.65 | 9.23 | 1.28 | 4.23 | 3.19 | 15.8 |  |  | 1.01 | 4.68 | 1.01 | 6.5
5 | O=C1Cc2cc(CCN3CCNCC3)c(Cl)cc2N1 | 5.11 | > 100 | 4.2 | > 100 | 0.358 | > 100 | 3.96 | > 100 |  |  | 19.7 | > 100 |  |  | 6.24 | > 100 | 10 | > 100 | 98.3 | > 100
6 | CSc1nc(SC)c2c(C)cn(COCCOC(=O)c3ccccc3)c2n1 |  | > 100 |  | > 100 |  | > 100 |  | > 100 |  | > 100 |  | > 100 |  | > 100 |  |  |  | > 100 |  | > 100
7 | CCc1c(C)c2cc(-n3c(-c4ccc(OC)cc4)csc3=N)c(O)c(C)c2oc1=O | 1.62 | 10.6 | 1.52 | 10.3 | 1.24 | 11.1 | 1.32 | 8.37 | 1.73 | 6.26 | 1.94 | 4.88 | 1.08 | 5.25 |  |  | 1.23 | 2.99 | 0.752 | > 100
8 | O=C(N/C(=C\c1ccc(/C=C(\NC(=O)c2ccccc2)c2nc3c(O)nc(S)nc3[nH]2)cc1)c1nc2c(O)nc(S)nc2[nH]1)c1ccccc1 |  |  |  | > 100 |  | > 100 |  | > 100 |  | > 100 |  | > 100 |  | > 100 |  | > 100 |  | > 100 |  | 
9 | COC1/C(=C\C(C)=O)c2ccccc2N1C(C)=O (centres undefined) |  |  |  | > 100 |  | > 100 |  | > 100 |  |  |  | > 100 |  | > 100 |  | > 100 |  | > 100 |  | 
10 | CC1(C)C(=O)/C=C\C(=O)C(C)(C)C(=O)/C=C\C(=O)C(C)(C)C2=CC=C(O2)C(C)(C)C(=O)/C=C\C1=O |  |  |  | 31.1 |  | 11.6 |  | 19.8 |  | 4.11 |  | 6.45 |  | 24.9 |  | > 46.9 |  | 5 |  | 29.2
11 | CCN(CC)C(=S)SS(C)(=O)=O |  |  |  | 98 |  | 75.8 |  | 31.7 |  | 58.4 |  | 29.7 |  | > 100 |  | 47.8 |  | 43.1 |  | 
12 | O=C(CCc1ccccc1)CC1OC(=O)C(Cl)=C1Cl (centres undefined) |  |  |  | 87.4 |  | 66.1 |  | 33.8 |  | 33.1 |  | 30.9 |  | 40.8 |  | 88 |  | 28 |  | 
13 | N#Cc1ccc(C2SCc3nc4ccccc4n32)cc1 (centres undefined) |  |  |  | > 100 |  | > 100 |  | > 100 |  | > 100 |  | > 100 |  | > 100 |  | > 100 |  | > 100 |  | 
14 | Cc1ccc(S(=O)(=O)C2CC2(Cl)Cl)cc1 (centres undefined) |  |  |  | > 100 |  | > 100 |  | > 100 |  | 48.8 |  | 41.9 |  | 72.1 |  | > 100 |  | 44.7 |  | 
15 | S=C(SSC(=S)N1CCCCC1)N1CCCCC1 | 15.7 | 40.9 | 40.1 | > 100 | 28.4 | > 100 | 13.9 | 29 | 16.4 | 50.4 | 11.8 | 24.1 |  |  | 22.5 | > 100 |  |  | 12.3 | 51.4
16 | O=C1C(Cl)=C(NCCCN(CCCNC2=C(Cl)C(=O)c3ccccc3C2=O)C2=C(Cl)C(=O)c3ccccc3C2=O)C(=O)c2ccccc21 | 4.06 | > 100 | 3.07 | 14.7 | 2.62 | 13.9 | 3 | 12.8 | 1.62 | 3.29 |  |  | 1.76 | 6.13 |  |  |  |  | 2.15 | 16.7
17 | Cc1[nH]c2cc([N+](=O)[O-])ccc2c1[N+](=O)[O-] |  |  |  | 48.8 |  | 49.6 |  | 67.6 |  | 54.4 |  | 33 |  | > 100 |  | > 100 |  |  |  | 
18 | CC(=O)CC(=O)Nc1ccccc1C(F)(F)F |  |  |  |  |  | > 100 |  |  |  | > 100 |  | > 100 |  | > 100 |  | > 100 |  | > 100 |  | 
19 | Cc1c(-c2ccccn2)ccc2ccccc12 |  | > 100 |  | > 100 |  | > 100 |  | > 100 |  | > 100 |  | > 100 |  |  |  | > 100 |  | > 100 |  | > 100
20 | COC(=O)c1cc2cc(/C=C3/SC(=S)N(N(C(C)=O)C(C)=O)C3=O)oc2n1Cc1ccccc1 | 14.4 | 35 | 13.2 | 52.4 | 31 | > 100 | 27.8 | > 100 |  |  | 77.6 | > 100 | 22.4 | 57.3 | 22.7 | 53.7 |  |  | 37.8 | > 100
